According to ChEMBL document CHEMBL1144409, “Synthesis of new quinoxaline-2-carboxylate 1,4-dioxide derivatives as anti-Mycobacterium tuberculosis agents” (J Med Chem, 2005):
≈ marks a conversion by molar mass, not a printed value.

What was measured:
[1] = system: Mycobacterium tuberculosis; assay: In vitro actual minimum inhibitory concentration value of the compound was determined against Mycobacterium tuberculosis H37Rv strain; Range is 0.015-0.125; assay type: functional
[2] = Selectivity index (ratio of IC50 and MIC) value was determined; settings: cercopithecidae
[3] = Compound was tested for cytotoxicity in Vero cells; assay type: cell-based; settings: Chlorocebus sabaeus
[4] = system: Mycobacterium tuberculosis; assay: In vitro actual minimum inhibitory concentration value of the compound was determined against Mycobacterium tuberculosis; assay type: functional
[5] = system: Mycobacterium tuberculosis; assay: In vitro minimum inhibitory concentration value against Mycobacterium tuberculosis H37Rv strain in bactec assay; assay type: functional
[6] = system: Mycobacterium tuberculosis; assay: In vitro minimum inhibitory concentration value against Mycobacterium tuberculosis erdman strain in alamar assay; assay type: functional
[7] = system: Mycobacterium tuberculosis; assay: In vitro minimum inhibitory concentration value against Mycobacterium tuberculosis H37Rv strain in alamar assay; assay type: functional
[8] = system: Mycobacterium tuberculosis; assay: In vitro actual minimum inhibitory concentration value against Mycobacterium tuberculosis; assay type: functional
[9] = system: Mycobacterium tuberculosis; assay: In vitro effective concentration of the compound causing 99%reduction in residualmycobacterium tuberculosis growth after 7 days compared to untreated control; assay type: functional; settings: 168 h
[10] = system: Mycobacterium tuberculosis; assay: In vitro ratio of EC90 and MIC value of the compound was determined; assay type: functional
[11] = system: Mycobacterium tuberculosis; assay: In vitro effective concentration of the compound causing 90%reduction in residualmycobacterium tuberculosis growth after 7 days compared to untreated control; assay type: functional; settings: 168 h
[12] = Compound was tested for cytotoxicity in Vero cells; Insoluble; assay type: cell-based, Chlorocebus sabaeus

CO[C@H]1/C=C/O[C@@]2(C)Oc3c(C)c(O)c4c(O)c(c(/C=N/N5CCN(C)CC5)c(O)c4c3C2=O)NC(=O)/C(C)=C\C=C\[C@H](C)[C@H](O)[C@@H](C)[C@@H](O)[C@@H](C)[C@H](OC(C)=O)[C@@H]1C [RIFAMPIN]
MIC [1]: 0.125 mg/L (≈ 0.152 µM)

COC(=O)c1c(C)[n+]([O-])c2ccccc2[n+]1[O-]
SI [2]: > 6.41
IC50 [3]: > 10 mg/L
MIC [4]: 1.56 mg/L (≈ 6.66 µM)

CCc1c(C(=O)OC)[n+]([O-])c2cc(C)c(C)cc2[n+]1[O-]
SI [2]: > 10
MIC [5]: 0.2 mg/L (≈ 0.724 µM)
MIC [6]: 0.39 mg/L (≈ 1.41 µM)
MIC [7]: 0.39 mg/L (≈ 1.41 µM)
IC50 [3]: > 62.5 mg/L
MIC [4]: 6.25 mg/L (≈ 22.6 µM)

CCc1c(C(=O)OC)[n+]([O-])c2cc(F)c(F)cc2[n+]1[O-]
SI [2]: 0.77
IC50 [3]: 1.2 mg/L (≈ 4.22 µM)
MIC [4]: 1.56 mg/L (≈ 5.49 µM)

COC(=O)c1c(C(C)(C)C)[n+]([O-])c2ccc(Cl)cc2[n+]1[O-]
MIC [4]: > 6.25 mg/L

COC(=O)c1c(Cc2ccccc2)[n+]([O-])c2cc(F)c(F)cc2[n+]1[O-]
MIC [4]: > 6.25 mg/L

COC(=O)c1c(Cc2ccccc2)[n+]([O-])c2cc(Cl)c(Cl)cc2[n+]1[O-]
MIC [5]: 6.25 mg/L (≈ 16.5 µM)
MIC [6]: ≤ 3.13 mg/L
MIC [8]: 6.25 mg/L (≈ 16.5 µM)
MIC [7]: ≤ 3.13 mg/L

CCc1c(C(=O)OC)[n+]([O-])c2cc(C)ccc2[n+]1[O-]
SI [2]: > 40.1
IC50 [3]: > 62.5 mg/L
MIC [4]: 1.56 mg/L (≈ 5.95 µM)

COC(=O)c1c(C(C)(C)C)[n+]([O-])c2cc(C)c(C)cc2[n+]1[O-]
MIC [4]: > 6.25 mg/L

COC(=O)c1c(C)[n+]([O-])c2cc(C)c(C)cc2[n+]1[O-]
SI [2]: > 20
EC99 [9]: 6.15 µg/mL
Ratio [10]: 0.52
EC90 [11]: 1.64 mg/L (≈ 6.25 µM)
IC50 [3]: > 62.5 mg/L
MIC [4]: 3.13 mg/L (≈ 11.9 µM)

COC(=O)c1c(Cc2ccccc2)[n+]([O-])c2ccccc2[n+]1[O-]
SI [2]: 470
EC99 [9]: > 2 µg/mL
Ratio [10]: 1.5
EC90 [11]: 0.15 mg/L (≈ 0.483 µM)
IC50 [3]: 47 mg/L (≈ 151 µM)
MIC [4]: 0.1 mg/L (≈ 0.322 µM)

C=CCc1c(C(=O)OC)[n+]([O-])c2cc(Cl)c(Cl)cc2[n+]1[O-]
SI [2]: 0.93
IC50 [3]: 5.8 mg/L (≈ 17.6 µM)
MIC [4]: 6.25 mg/L (≈ 19 µM)

COC(=O)c1c(C)[n+]([O-])c2cc(Cl)c(Cl)cc2[n+]1[O-]
SI [2]: 8.4
IC50 [3]: 1.68 mg/L (≈ 5.54 µM)
MIC [4]: 0.2 mg/L (≈ 0.66 µM)

COCCc1c(C(=O)OC)[n+]([O-])c2cc(Cl)c(Cl)cc2[n+]1[O-]
SI [2]: 11.5
EC99 [9]: > 1.56 µg/mL
Ratio [10]: >4
EC90 [11]: > 1.56 mg/L
IC50 [3]: 4.5 mg/L (≈ 13 µM)
MIC [4]: 0.39 mg/L (≈ 1.12 µM)

CCc1c(C(=O)OC)[n+]([O-])c2cc(Cl)ccc2[n+]1[O-]
SI [2]: > 50
EC99 [9]: 1.14 µg/mL
Ratio [10]: 2.3
EC90 [11]: 0.46 mg/L (≈ 1.63 µM)
IC50 [3]: > 10 mg/L
MIC [4]: 0.2 mg/L (≈ 0.708 µM)

CCc1c(C(=O)OC)[n+]([O-])c2cc(Cl)c(Cl)cc2[n+]1[O-]
SI [2]: > 20
EC99 [9]: 5.99 µg/mL
Ratio [10]: >3.15
EC90 [11]: 0.63 mg/L (≈ 1.99 µM)
IC50 [3]: 4 mg/L (≈ 12.6 µM)
MIC [4]: < 0.2 mg/L

COC(=O)c1c(Cc2ccccc2)[n+]([O-])c2ccc(OC)cc2[n+]1[O-]
SI [2]: > 80.1
IC50 [3]: > 62.5 mg/L
MIC [4]: 0.78 mg/L (≈ 2.29 µM)

COC(=O)c1c(C)[n+]([O-])c2ccc(C)cc2[n+]1[O-]
SI [2]: > 40.1
EC99 [9]: 5.83 µg/mL
Ratio [10]: 1.24
EC90 [11]: 1.94 mg/L (≈ 7.82 µM)
IC50 [3]: > 62.5 mg/L
MIC [4]: 1.56 mg/L (≈ 6.28 µM)

COC(=O)c1c(C(C)(C)C)[n+]([O-])c2cc(Cl)c(Cl)cc2[n+]1[O-]
MIC [4]: > 6.25 mg/L

COC(=O)c1c(Cc2ccccc2)[n+]([O-])c2ccc(Cl)cc2[n+]1[O-]
SI [2]: 76
EC99 [9]: 0.08 µg/mL
Ratio [10]: 0.01
EC90 [11]: 0.0005 mg/L (≈ 0.00145 µM)
IC50 [3]: 7.6 mg/L (≈ 22 µM)
MIC [4]: 0.1 mg/L (≈ 0.29 µM)

CCOC(=O)COC(=O)c1c(CC)[n+]([O-])c2ccc(Cl)cc2[n+]1[O-]
SI [2]: 1.2
IC50 [3]: 1.89 mg/L (≈ 5.33 µM)
MIC [4]: 1.56 mg/L (≈ 4.4 µM)

COC(=O)c1c(C)[n+]([O-])c2cc(F)c(F)cc2[n+]1[O-]
SI [2]: 3.8
IC50 [3]: 1.48 mg/L (≈ 5.48 µM)
MIC [4]: 0.39 mg/L (≈ 1.44 µM)

COC(=O)c1c(Cc2ccccc2)[n+]([O-])c2ccc(C)cc2[n+]1[O-]
SI [2]: 144
EC99 [9]: 3.79 µg/mL
Ratio [10]: 2.9
EC90 [11]: 1.13 mg/L (≈ 3.48 µM)
IC50 [3]: 56 mg/L (≈ 173 µM)
MIC [4]: 0.39 mg/L (≈ 1.2 µM)

CCc1c(C(=O)OC)[n+]([O-])c2ccccc2[n+]1[O-]
SI [2]: 30.1
EC99 [9]: 3.32 µg/mL
Ratio [10]: 0.56
EC90 [11]: 0.88 mg/L (≈ 3.54 µM)
IC50 [3]: 47 mg/L (≈ 189 µM)
MIC [4]: 1.56 mg/L (≈ 6.28 µM)

CCc1c(C(=O)OC)[n+]([O-])c2cc(OC)ccc2[n+]1[O-]
SI [2]: 6.4
IC50 [3]: 39.9 mg/L (≈ 144 µM)
MIC [4]: 6.25 mg/L (≈ 22.5 µM)

C=CCc1c(C(=O)OC)[n+]([O-])c2cc(C)c(C)cc2[n+]1[O-]
MIC [4]: > 6.25 mg/L

COC(=O)c1c(C)[n+]([O-])c2ccc(OC)cc2[n+]1[O-]
SI [2]: 33.7
IC50 [3]: 52.6 mg/L (≈ 199 µM)
MIC [4]: 1.56 mg/L (≈ 5.9 µM)

CCOC(=O)COC(=O)c1c(CC)[n+]([O-])c2cc(Cl)c(Cl)cc2[n+]1[O-]
SI [2]: 6.1
IC50 [3]: 1.22 mg/L (≈ 3.13 µM)
MIC [4]: 0.2 mg/L (≈ 0.514 µM)

COC(=O)c1c(C(C)(C)C)[n+]([O-])c2ccccc2[n+]1[O-]
MIC [4]: > 6.25 mg/L

COC(=O)c1c(Cc2ccccc2)[n+]([O-])c2cc(C)c(C)cc2[n+]1[O-]
IC50 [12]: Insoluble
MIC [4]: 3.13 mg/L (≈ 9.25 µM)
